Laboratory results as given in publication PMC11490619, “Discovery of Trypanosoma brucei inhibitors enabled by a unified synthesis of diverse sulfonyl fluorides” (Communications Chemistry, 2024).

Columns and labels:
[1] = tested on: T1, Trypanosoma brucei brucei bloodstream forms; assay: microbe, parasite or virus in culture; design: Resazurin viability of bloodstream form parasites, fluorescence 560/590 nm, dose-response, initial screen n = 1; conditions: initial screen, n = 1, 0.5% DMSO
T1 construct: 427 single marker, bloodstream form
Method: Cell viability assays were carried out in 96 well plates with 200 µL of culture per well as described previously. For this study we used bloodstream forms (BSF) of Trypanosoma brucei brucei strain 427 single marker. Axenic cultures of parasites were maintained at the logarithmic phase of cell proliferation (density below 2 ×10^6 parasites/mL) by successive passages in HMI-11 media supplemented with 10% heat inactivated foetal calf serum and 2.5 mg/L geneticin (Ge418) at 37°C under an atmosphere of 5% CO2. Parasites were seeded at 5 ×10^3 cells/mL and incubated with drug for 66 hours. The plate included wells containing the positive control pentamidine (100 nM) and the negative control of 0.5% DMSO. After 66 hours, 10 µL of 1.1 mg/mL Resazurin sodium salt was added in PBS and incubated for a further 6 hours. Plates were then read on a plate reader using excitation/emission 560/590 nm. EC50 values and errors were calculated using a sigmoidal dose response fitting algorithm. The initial screen was performed at n = 1 with follow-up screen of hits n = 4 technical replicates. The set of diverse sulfonyl fluoride probes was screened against Trypanosoma brucei brucei bloodstream forms in 96-well plate format (final concentrations: 0.1–100 μM in 0.5% dimethyl sulfoxide (DMSO); n = 1) (Fig. 3b). […]

[2] = target: T2, prolyl endo-/oligo-peptidase S9 (Q38AG2) (Trypanosoma brucei, UniProt Q38AG2); assay: C-1alk click biotin pulldown, LFQ LC-MS/MS; format: biochemical; conditions: covalent; labelled compound; parasite lysate; 1.5 uM C-1alk, 1 h, 25 C
T2 construct: gene Tb10.6k15.2520; native protein in parasite lysate
T2 sequence (Q38AG2 entry or part of it, one chain of several): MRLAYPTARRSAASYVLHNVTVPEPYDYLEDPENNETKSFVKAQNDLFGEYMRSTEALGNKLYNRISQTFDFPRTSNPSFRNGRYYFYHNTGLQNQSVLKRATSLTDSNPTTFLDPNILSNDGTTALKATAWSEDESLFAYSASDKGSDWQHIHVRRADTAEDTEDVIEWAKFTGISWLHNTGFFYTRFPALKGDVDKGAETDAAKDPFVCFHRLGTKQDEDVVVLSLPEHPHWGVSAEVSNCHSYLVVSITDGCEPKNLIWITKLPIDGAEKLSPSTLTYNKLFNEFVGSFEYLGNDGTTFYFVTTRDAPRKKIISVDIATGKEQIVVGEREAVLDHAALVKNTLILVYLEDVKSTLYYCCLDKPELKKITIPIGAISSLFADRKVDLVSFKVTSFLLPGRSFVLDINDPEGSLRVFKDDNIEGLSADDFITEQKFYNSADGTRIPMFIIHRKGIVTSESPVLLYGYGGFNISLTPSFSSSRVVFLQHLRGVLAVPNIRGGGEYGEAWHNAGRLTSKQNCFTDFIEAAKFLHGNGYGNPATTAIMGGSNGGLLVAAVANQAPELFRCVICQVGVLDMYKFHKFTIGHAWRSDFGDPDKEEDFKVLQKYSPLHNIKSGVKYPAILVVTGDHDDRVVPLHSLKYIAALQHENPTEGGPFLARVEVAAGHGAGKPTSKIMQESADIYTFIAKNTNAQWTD

[3] = target: T3, T. brucei glycerol kinase (Q38DF0) (Trypanosoma brucei, UniProt Q38DF0); assay: modified-peptide LC-MS/MS after click to cleavable biotin-azide; format: binding; conditions: covalent; labelled compound; parasite lysate; site S137, T138 or Y139
T3 construct: gene Tb09.211.3570; native protein in parasite lysate
T3 sequence (Q38DF0 entry or part of it): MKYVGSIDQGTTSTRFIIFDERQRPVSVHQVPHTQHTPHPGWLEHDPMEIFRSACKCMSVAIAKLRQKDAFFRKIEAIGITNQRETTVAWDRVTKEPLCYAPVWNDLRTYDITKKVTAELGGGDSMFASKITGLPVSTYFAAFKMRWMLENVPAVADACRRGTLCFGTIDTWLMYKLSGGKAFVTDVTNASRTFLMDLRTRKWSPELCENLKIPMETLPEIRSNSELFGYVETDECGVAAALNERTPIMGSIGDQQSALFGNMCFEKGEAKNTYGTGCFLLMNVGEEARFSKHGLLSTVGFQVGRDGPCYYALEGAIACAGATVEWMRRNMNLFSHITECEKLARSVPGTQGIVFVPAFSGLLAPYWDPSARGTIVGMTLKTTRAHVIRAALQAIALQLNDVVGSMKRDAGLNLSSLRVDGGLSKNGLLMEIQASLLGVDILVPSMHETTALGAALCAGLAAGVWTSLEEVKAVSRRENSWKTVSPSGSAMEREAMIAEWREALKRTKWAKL

[4] = target: T4, lyso-phospholipase (D6XM23) (Trypanosoma brucei, UniProt D6XM23); assay: C-1alk click biotin pulldown, LFQ LC-MS/MS; format: biochemical; conditions: covalent; labelled compound; parasite lysate; 1.5 uM C-1alk, 1 h, 25 C
T4 construct: gene Tb08.11J15.160; native protein in parasite lysate, about 30 kDa
T4 sequence (D6XM23 entry or part of it): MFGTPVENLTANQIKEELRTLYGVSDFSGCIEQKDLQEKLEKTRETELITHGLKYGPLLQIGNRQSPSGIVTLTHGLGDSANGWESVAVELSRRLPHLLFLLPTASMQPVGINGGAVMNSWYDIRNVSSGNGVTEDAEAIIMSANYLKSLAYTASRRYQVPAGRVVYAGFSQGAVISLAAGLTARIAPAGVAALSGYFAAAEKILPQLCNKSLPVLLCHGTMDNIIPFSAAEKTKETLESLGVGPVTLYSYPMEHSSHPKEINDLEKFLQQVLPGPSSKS

| Structure (SMILES) | EC50 [1] | C-1alk click biotin pulldown, LFQ LC-MS/MS [2] | modified-peptide LC-MS/MS after click to cleavable biotin-azide [3] | C-1alk click biotin pulldown, LFQ LC-MS/MS [4] |
| --- | --- | --- | --- | --- |
| CC(C)(C)OC(=O)N1CCCC1c1ccc(S(=O)(=O)F)cn1 (stereo not shown) [C-1] | 330 nM | – | – | – |
| C#CCOC(=O)N1CCCC1c1ccc(S(=O)(=O)F)cn1 (stereo not shown) [C-1alk] | – | prolyl endo-/oligo-peptidase S9 (Q38AG2), which had been previously enriched with our C-1alk probe | identify peptides matching the expected mass shift for T. brucei glycerol kinase (Q38DF0) | Lyso-phospholipase emerged as the sole common hit labelled by both C-1alk and FP-biotin |
